Measured values taken from PMC6985102 (Scientific Reports, 2020).

Columns and labels:
[1] = molecular target: T1, BSA (Bos taurus, UniProt P02769); test: Extraction efficiency of parent SeC after deproteinization (BSA, NEM-pretreated BSA)
Procedure: The spiked matrix was obtained by adding 10 µL of SeC solution into 10 µL of blank plasma or 5% BSA solution. To extract the parent SeC from the prepared spiked matrix (20 µL), 50 µL of ACN were added followed by rigorous vortexing. The mixture was centrifuged (30,000 g, 10 min) to obtain the extract. Two µL of the extract were injected into the liquid chromatography-mass spectrometry (LC-MS, Thermo TSQ Quantum Ultra) analyzer. Details about LC conditions (column, mobile phase and flow rate) and MS parameters were listed in Supplementary Table 1.
To clarify the role of albumin thiols, 10 µL of 5% BSA solution were pre-incubated with NEM (10 µL, 0.4 M in DMA) for 10 min before being mixed with SeC solution (10 µL). Again, 50 µL of ACN were used for extraction and 2 µL of the extract were injected into LC-MS for analysis.

[2] = system: C1498 cells; test: Cytotoxicity of SeC (CellTiter-Glo); conditions: C1498 leukemic cells, 24 hr, within the concentration range tested
Procedure: C1498 cells were cultured in DMEM supplemented with FBS (10%, v/v), penicillin (100 unit/mL) and streptomycin (100 µg/mL). Cells under the exponential growth phase were used for the cytotoxicity study. […] The stock solutions were diluted with cell culture medium till target concentration range. Briefly, 350 µL of cell suspension (0.2 × 10^6 cells/mL) were mixed with equal volume of SeC solution. The mixture was aliquoted to 96-well plate (100 µL per well) and incubated for 24 hours. Cell viability was determined using CellTiter-Glo kit (Promega, G7571). Cells treated with the appropriate solvent were used as the control. Cell survival rate was calculated as the percentage of […] in SeC-treated cells/control group.

[3] = molecular target: T1, BSA; test: Albumin binding degree by ultrafiltration; assay type: in vitro ADME, bovine; parameters: purchased Thermo Fisher; conditions: 5% albumin solution, SeC 20 µg/mL
Procedure: Two hundred µL of SeC solution were mixed with equal volume of H2O (control) or 5% BSA solution (final SeC concentration being 20 µg/mL). The mixture was transferred into an ultrafiltration tube (cut off 10 kDa, Sigma-Aldrich, 13239E) and centrifuged (2000 g and 5 min) to obtain the ultra-filtrate. Twenty µL of the ultra-filtrate were mixed with 50 µL of ACN and analyzed for SeC in parent form. Albumin binding degree was calculated as the percentage of SeC peak area in BSA solution in relative to that in H2O.

[4] = molecular target: human serum albumin (Homo sapiens, UniProt P02768); test: XAS linear combination fitting of SeC-human plasma mixture (SeC-HP); conditions: XANES linear combination fitting, total SeC 20 µg/ml; for SeC-HSA (%): albumin-bound share in SeC-human plasma mixture; for SeC (%): free SeC share in SeC-human plasma mixture
Chain of human serum albumin (P02768 25-609): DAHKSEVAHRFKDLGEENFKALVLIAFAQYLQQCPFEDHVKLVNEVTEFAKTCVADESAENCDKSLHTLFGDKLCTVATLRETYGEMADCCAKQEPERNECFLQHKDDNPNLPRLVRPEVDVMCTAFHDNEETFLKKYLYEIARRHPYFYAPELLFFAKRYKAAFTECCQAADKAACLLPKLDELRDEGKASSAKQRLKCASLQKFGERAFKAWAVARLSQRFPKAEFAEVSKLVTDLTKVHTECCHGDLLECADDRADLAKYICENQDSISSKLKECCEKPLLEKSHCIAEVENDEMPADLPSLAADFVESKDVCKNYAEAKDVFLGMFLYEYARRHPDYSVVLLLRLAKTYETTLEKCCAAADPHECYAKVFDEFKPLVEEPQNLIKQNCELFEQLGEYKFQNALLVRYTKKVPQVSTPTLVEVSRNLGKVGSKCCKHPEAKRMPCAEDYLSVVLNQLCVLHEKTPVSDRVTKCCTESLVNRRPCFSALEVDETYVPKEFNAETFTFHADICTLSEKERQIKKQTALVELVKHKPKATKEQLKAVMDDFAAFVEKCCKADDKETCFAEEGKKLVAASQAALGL
Procedure: SeC solution (40 µL; 2 mg/mL) was mixed with HSA (50 mg/mL in H2O; […]) and kept at room temperature for 30 min. The crude material was separated on a Superdex 200 Increase 10/300 GL column (GE Healthcare). The mobile phase consisted of ACN/H2O (5/95; v/v) at a flow rate of 0.75 mL/min. A total of 40 fractions (1 ml per fraction) approximately were collected, pooled and lyophilized (selenol-human serum albumin conjugate; SeC-HSA).
The mixture of SeC and human plasma (SeC-HP) was prepared. Generally, SeC solution (20 µL; 2 mg/mL) was mixed with 2 mL human plasma, kept at room temperature for 10 min and lyophilized. Selenium K-edge XAS measurements were performed in QEXAFS mode using a Si(311) double-crystal monochromator in CLAESS beamline at ALBA synchrotron light facility (Barcelona, Spain). Self-supported 5 mm pellets of SeC-HSA or SeC-HP (~20 mg) were measured in fluorescence mode using a 5 elements Silicon drift detector. For the reference compounds, the appropriate amount of pure SeC was mixed with cellulose to form pellets with an optimum absorption jump in transmission mode. Transmission was measured with ionization chambers filled with appropriate mixtures of N2 and Kr gases. To avoid radiation damage, all measurements were performed at liquid N2 temperature using the cryostat available at the beamline. Data analysis was performed using Demeter software package (version 0.9.26)[23].
In order to confirm the albumin binding, SeC was firstly allowed to react with HSA. The crude material was then separated by size exclusion chromatography and the eluent corresponding to […] was collected and lyophilized (SeC-HSA). SeC-HSA was subsequently subjected to XAS measurement and compared to the SeC itself. […] In addition, since the XAS spectra of mixtures can be expressed as an additive combination of its constituents, a linear combination fitting analysis using the reference spectra of SeC-HSA and SeC was carried out to assess the amount of each form in the mixture of SeC and human plasma (SeC-HP).
27 Supplementary Table 3. Linear combination fitting results of X-ray absorption near
28 edge spectra. The fitting was performed over the spectra for selenocompound-human plasma
29 mixture between -20 and 50 eV keeping E0 fixed and equal to 0 eV.

[5] = Pharmacokinetic study in mouse; conditions: for clearance / half-life: C57BL/6 albino, iv
Procedure: Blank plasma (10 µL) was spiked with 5 µL of SeC solution. NEM (10 µL, 0.4 M in DMA) and TCEP (5 µL, 0.2 M in H2O) were successively added to the spiked plasma. The mixture was vortexed for 30 sec and left for 10 min at room temperature before deproteinization using 50 µL of ACN. Two µL of processed sample were injected for LC-MS analysis (LC-MS parameters listed in Supplementary Table 2).
All animal experiments were approved by the Stockholm Southern Ethical Committee and performed in accordance with Swedish Animal Welfare Law (ethical permit no. ID 1031). CysSe2 (0.7 mg/mL) or MeSeA (1 mg/mL) was prepared in DPBS and the pH was adjusted to around 7.4. Ebselen or p-XSC was first dissolved in DMSO/Cremophor EL (1:1, v/v) at 5 mg/mL and then diluted with DPBS till 0.5 mg/mL. CysSe2 or MeSeA was injected into C57BL/6 albino mouse via the tail vein at a dose of 5 mg/kg; while the dose for ebselen and p-XSC was 2 mg/kg. Approximately 50 µL of blood were collected from the facial vein at different time points into EDTA-coated vials. SeC concentration in plasma was analyzed as described under section “Analysis of SeC using RECID”. The detected concentrations were fitted to a bolus injection in a one-compartment open model and the pharmacokinetic parameters were calculated using WinNonLin software (version 2.0).

[6] = Stability of selenocompound in plasma and selenol derivative in processed sample (RECID); assay type: in vitro ADME, human
Procedure: 48 Supplementary Table 7. Stability of selenocompound in plasma and selenol derivative in
49 processed sample. SeC-spiked plasma was treated as indicated and then analyzed using
50 RECID. SeC-NEM in processed sample was treated in the same way and then subjected to
51 LC-MS analysis. Stability was shown as the percentage of the peak area after indicated
52 treatment to that from base line value. SeC concentrations were 20 µg/mL. Results are shown
53 as the mean ± SD of three technical replicates.
SeC Sample Type Treatment
RT/24 hr 4 °C/24 hr -20 °C/24 hr Freeze-Thaw/5 Cycles

[7] = 5% BSA (pristine albumin) after deproteinization, SeC 20 µg/mL
[8] = NEM pretreated-BSA (albumin thiols blocked) after deproteinization, SeC 20 µg/mL
[9] = Spiked Plasma, 4 °C/24 hr, SeC 20 µg/mL
[10] = Spiked Plasma, -20 °C/24 hr, SeC 20 µg/mL
[11] = Spiked Plasma, Freeze-Thaw/5 Cycles, SeC 20 µg/mL
[12] = Spiked Plasma, RT/24 hr, SeC 20 µg/mL

T1 sequence (P02769 25-607): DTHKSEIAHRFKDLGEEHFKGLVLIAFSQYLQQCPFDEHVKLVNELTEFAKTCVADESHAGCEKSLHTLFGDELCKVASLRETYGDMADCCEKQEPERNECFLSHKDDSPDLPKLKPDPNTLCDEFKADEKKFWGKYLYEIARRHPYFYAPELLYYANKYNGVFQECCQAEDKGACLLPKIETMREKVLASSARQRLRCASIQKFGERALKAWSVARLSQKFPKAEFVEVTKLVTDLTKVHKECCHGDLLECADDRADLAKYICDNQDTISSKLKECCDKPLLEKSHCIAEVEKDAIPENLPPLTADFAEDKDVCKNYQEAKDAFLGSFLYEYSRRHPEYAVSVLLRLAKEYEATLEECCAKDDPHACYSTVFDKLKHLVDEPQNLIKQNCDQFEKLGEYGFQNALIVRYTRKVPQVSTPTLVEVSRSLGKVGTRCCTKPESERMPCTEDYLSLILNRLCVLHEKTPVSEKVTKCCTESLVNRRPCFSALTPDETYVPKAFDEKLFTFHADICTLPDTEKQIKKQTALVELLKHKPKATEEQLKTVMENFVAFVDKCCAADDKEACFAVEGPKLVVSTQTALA

Structure (SMILES)	Extraction efficiency [1, 7]	Cytotoxicity [2]	Albumin binding degree [3]	SeC-HSA (%) [4]	SeC (%) [4]	Extraction efficiency [1, 8]	clearance ([5]; plasma)	half-life ([5]; plasma)	Stability (peak area vs base line) [6, 9]	Stability (peak area vs base line) [6, 10]	Stability (peak area vs base line) [6, 11]	Stability (peak area vs base line) [6, 12]	also measured
C[Se]CC[C@H](N)C(=O)O [SeMet, Selenomethionine]	over 95%	no cytotoxic effect	< 3%										
N#C[Se]Cc1ccc(C[Se]C#N)cc1 [p-XSC, p-xyleneselenocyanate]		showed cytotoxicity	52–100%	100.0%	0%								clearance ([5]; in vivo): 0.0967 mL/min; half-life ([5]; in vivo): 30.6 ± 7.2 min
O=c1c2ccccc2[se]n1-c1ccccc1 [Ebselen]	9.3%	showed cytotoxicity	52–100%	91.5%	8.5%	90.7%	0.177 mL/min	13.2 ± 2.4 min	113.1 ± 0.5%	108.2 ± 3.2%	97.2 ± 2.7%	110.3 ± 1.8%	
C[Se]C[C@H](N)C(=O)O [MeSeCys, methylselenocysteine]		no cytotoxic effect	< 3%										Extraction efficiency ([1]; bovine, 20 µg/mL): over 95%
NC(C[Se][Se]CC(N)C(=O)O)C(=O)O (stereo not shown) [CysSe2, Selenocystine]	21.4%	showed cytotoxicity	52–100%	80.4%	19.6%	79.6%	0.642 mL/min	8.4 ± 1.2 min	100.9 ± 7.9%	99.6 ± 6.4%	102.2 ± 0.6%	98.6 ± 7.1%	Total exposure compared to that of ebselen ([5]; intravenous, CysSe2 5 mg/kg vs ebselen 2 mg/kg): around 72%; Exposure adjusted for dose, relative to ebselen ([5]; intravenous, dose-adjusted): less than one third
C[Se](=O)O [MeSeA, methylseleninic acid]	0%	showed cytotoxicity	52–100%	100.0%	0%	94.8%			108.9 ± 4.8%	116.0 ± 3.2%	117.3 ± 0.5%	110.9 ± 2.0%	Stability (peak area vs base line) ([6]; Processed sample (SeC-NEM derivative), 4 °C/24 hr): 106.7 ± 0.5%; Stability (peak area vs base line) ([6]; Processed sample (SeC-NEM derivative), -20 °C/24 hr): 103.2 ± 1.0%; Stability (peak area vs base line) ([6]; Processed sample (SeC-NEM derivative), Freeze-Thaw/5 Cycles): 104.3 ± 0.4%; Stability (peak area vs base line) ([6]; Processed sample (SeC-NEM derivative), RT/24 hr): 114.3 ± 0.3%
